Source: US5041542A, “Substituted pyrimido[5,4-d]pyrimidine nucleosides” (Nucleic Acid Research Institute, priority 1988, dated 1991)
In brackets after ≈: the same amount, converted by molar mass. Read-outs that look alike come from different tables or passages of the source.

Legend:
physchem = details: water
[1] = tested on: herpes simplex virus type 2 (MS strain); assay: In vitro antiviral activity, herpes simplex virus type 2 (virus rating); format: cell-based; details: Vero cells; VR >1.0 marked, 0.5 to 0.9 moderate, <0.5 weak or no activity
[2] = tested on: pyrimidine (CTP + UTP) and purine (ATP + GTP) nucleoside triphosphates; assay: 14C-bicarbonate incorporation into acid soluble pyrimidine and purine nucleoside triphosphates; format: cell-based
Text: Comparative effect of compounds on ^14 C-bicarbonate
incorporation into acid soluble pyrimidine (PyrTP,
CTP + UTP) and purine (PurTP, ATP + GTP) nucleoside

[3] = Lethal toxicity in treated mice
[4] = tested on: parainfluenza 3 (C243 strain); assay: In vitro antiviral activity, parainfluenza 3 (virus rating); format: cell-based; details: Vero cells; VR >1.0 marked, 0.5 to 0.9 moderate, <0.5 weak or no activity
adenosine deaminase = assay: in vitro; format: biochemical; details: compared with ARPP
Protocol: (§1) Samples were analyzed directly on reverse-phase HPLC. Enzymatic conversions were distinguished from hydrolysis by treating a parallel sample with EHNA to inhibit the deaminase activity.

in vitro = format: biochemical; details: adenosine deaminase, pH 7.5
Protocol: as §1

LoVo/L cells = assay: In vitro cytotoxicity, LoVo/L; format: cell-based; details: Homo sapiens, 120 h, 5 days, 37° C., MTT, read-out: Antitumor (ID50) LoVo/L
Protocol: (§2) ^b (ID50) inhibitory dose is the μM concentration of the
(§3) In vitro cytotoxicity analysis was performed by using the following cell lines: L1210 (a murine leukemia), WI-L2 (a human B-lymphoblast), and LoVo/L (a human colon carcinoma). Cells were grown in RPMI 1640 medium supplemented with 10% fetal bovine serum, 20 mM HEPES, pH 7.4, and 2 mM glutamine. The cytotoxicity determinations were carried out in 96-well microtiter dishes containing a starting number of 5-10×10^3 cells per well and 0.1-100 μM concentrations of the compounds in triplicate wells. L1210 and WI-L2 were incubated with the compounds at 37° C. for 3 days, while Lovo/L was incubated for 5 days. After this time period, 25 μL of 4 mg/mL 3-(4,5-dimethylthiazol-2-yl)-2,5-diphenyltetrazolium bromide was added to each well and incubation was continued for 2 to 5 h. The formazan product was dissolved in isopropanol containing 0.04M HCl and the absorbance was determined with a microtiter plate reader. The absorbance was proportional to the number of cells.

L1210 = assay: In vivo antitumor activity against L1210 in BDF1 mice
Protocol: Compounds 8, 11, 14 and 17 were comparatively evaluated in vivo for efficacy against L1210 in BDF1 mice.
Mice were inoculated i.p. with 1×10^6 L1210 cells 24 hr before qd, day 1, i.p. drug delivery. Drugs were solubilized in water and delivered at the rate of 0.01 ml/g mouse weight. Then control mice/drug were injected i.p. with equivalent volumes of a 0.9% solution of NaCl, the means and standard deviations reflecting the postinoculation life spans of these mice ranged from 6.30±0.48 to 6.60±0.97 days.

L1210 cells = assay: In vitro cytotoxicity, L1210; format: cell-based, murine; details: Mus musculus, L1210, 72 h; 3 days, 37° C., MTT; read-out: Antitumor (ID50) L1210
Protocol: as §2, §3

[5] = delivered at 0.01 ml/g mouse weight
WI-L2 cells = assay: In vitro cytotoxicity, WI-L2; format: cell-based; details: Homo sapiens, WIL2, 72 h; 3 days, 37° C., MTT; read-out: Antitumor (ID50) WI-L2
Protocol: as §2, §3

[6] = tested on: WI-L2 cells deficient in adenosine kinase; assay: Cytotoxicity to WI-L2 cells deficient in adenosine kinase activity; format: cell-based, human; details: 100 μM
Protocol: (§4) Compounds of the invention were also tested for certain biochemical properties. Compounds of the invention were studied for their effect on de novo purine biosynthesis by observing inhibition of incorporation of [^14 C]formate into the acid-soluble fraction of WI-L2 cells (see Table 3). […] However, 8 and 14 (100 μM) were not cytotoxic to WI-L2 cells deficient in adenosine kinase activity.
(§5) A normal lymphoblast phenotype B cell line, WI-L2 was used. The enzyme-deficient cell lines used in vitro are: HPRT-, a hypoxanthine-guanine phosphorbosyl transferase (EC 2.4.2.8)deficient line and AK-, an adenosine kinase (EC 2.7.1.20)deficient line. Cells were cultured in RPMI 1640 medium containing 5% dialyzed fetal bovine serum, 20 mM Na HEPES, pH 7.5 and 2 mM glutamine and maintained in log phase growth between 0.5 and 12×10^5 cells/mL. The mutant cell lines were periodically reselected by treatment with 6-thioguanine (HPRT-) or tubercidin (AK-).

[7] = tested on: vaccinia virus (Elstree strain); format: cell-based; details: HeLa cells; VR >1.0 marked, 0.5 to 0.9 moderate, <0.5 weak or no activity
[8] = tested on: de novo purine biosynthesis in WI-L2 cells; assay: Inhibition of de novo purine biosynthesis ([14C]formate incorporation); format: cell-based, human; details: for minimal effective concentration: active at concentrations as low as, read-out: lowest active concentration, de novo purine biosynthesis; for activity at 0.25 µM / activity at 2.5 µM: pre-incubation 8 h; for inhibitory activity on de novo purine biosynthesis (ranking): WI-L2 cells
Protocol: as §4, §5
. Inhibition of de novo purine biosynthesis: WI-L2 or adenosine kinase-deficient cells were preincubated at 37° C. with drug for various time periods prior to labeling with [^14 C]formate. Enzyme Assays: Adenosine kinase inhibition studies were accomplished by the filter binding assay method. Inhibition studies were done at 37° C. with an assay mixture containing 4 mM ATP, 1.5 mM MgCl2, 5 or 10 μM [8-^14 C] adenosine (50 mCi/mmol) and 100 mM Tris-maleate, pH 5.5. To prevent the enzymatic breakdown of adenosine, erythro-9-(2-hydroxy-3-nonyl)adenine (EHNA) was added to the cell-free WI-L2 lysate to give 5 μM final assay concentration. The assay was started by the addition of protein. The amount of enzyme, time of assay and sampling volume were adjusted to give acceptable conversion of [8-^14 C] adenosine to [8-^14 C]AMP. Each DE-81 filter was spotted with a constant sampling volume and immersed in H 2 O (4 L) to terminate the reaction. Filters were washed three times with H2 O (4 L) and once with EtOH (100 mL). Dry filters were placed in scintillation vials and radioactivity was counted with 10 mL toluene-based scintillation cocktail.
De novo purine biosynthesis was measured by the incorporation of ^14 C-formate into cellular purine nucleotides or excreted purines after pre-incubation with compound.

[9] = Homo sapiens, WIL2, cell, read-out: de novo purine biosynthesis, % of control, cell, 0.25 μM
[10] = Homo sapiens, WIL2, cell, read-out: de novo purine biosynthesis, % of control, cell, 2.5 μM
[11] = Homo sapiens, WIL2, media (excreted purines), read-out: de novo purine biosynthesis, % of control, media, 0.25 μM
[12] = Homo sapiens, WIL2, media (excreted purines), read-out: de novo purine biosynthesis, % of control, media, 2.5 μM

Compound | solubility (physchem) | Antiviral (VR) HSV2 [1] | lethal toxicity at maximum soluble dosage ([3]; i.p.) | Antiviral (VR) PI3 [4] | substrate activity for adenosine deaminase (adenosine deaminase) | IC50 (LoVo/L cells) | IC50 (L1210 cells) | Maximum watersoluble dosage [5] | IC50 (WI-L2 cells) | cytotoxicity to adenosine kinase-deficient WI-L2 cells [6] | Antiviral (VR) VV [7] | effect on de novo purine biosynthesis [8] | minimal effective concentration ([8]; Homo sapiens, WIL2) | activity at 0.25 µM [8, 9] | activity at 2.5 µM [8, 10] | activity at 0.25 µM [8, 11] | activity at 2.5 µM [8, 12] | inhibitory activity on de novo purine biosynthesis (ranking) [8] | also measured
Nc1ncnc2c(N[C@@H]3O[C@H](CO)[C@@H](O)[C@H]3O)ncnc12 [Compound 8, 4-Amino-8-(β-D-ribofuranosylamino)pyrimido[5,4-d]pyrimidine, reference compound] | 17.3 mg/mL (≈ 58.8 mM) | 0.8 VR | Neither drug was lethally toxic at its maximum soluble dosage | 0.7 VR | preferential disappearance of the β-anomer | 7000 nM | 800 nM | 173 mg/kg/inj. | 200 nM | not cytotoxic | 1.3 VR | inhibit an early step in de novo purine biosynthesis | 0.25 µM | 79.5% | 29.9% | 71.9% | 54.6% | greatest inhibitory activity | CAA (carbamyl aspartate), 1.5 μM ([2]; 1.5 μM): 1608 cpm/10^6 cells; PurTP, 1.5 μM ([2]; 1.5 μM, zero = undetectable): 0 cpm/10^6 cells; PyrTP, 1.5 μM ([2]; 1.5 μM, zero = undetectable): 0 cpm/10^6 cells; activity at 1.5 µM ([2]; 1.5 μM, zero = undetectable, read-out: PurTP, % control, 1.5 μM): 0%; activity at 1.5 µM ([2]; read-out: PydTP, % control, 1.5 μM): 0%; metabolised at 5 min, 1000 µM (in vitro; 5 min, β-anomer, read-out: conversion of β-anomer by adenosine deaminase in 5 min): 60%; Postinoculation Lifespan (% T/C), 173 mg/kg/inj. (L1210; 173 mg/kg/inj. i.p., qd, day 1): 162 % T/C; T/C (L1210; qd, day 1, at maximum soluble dosage): 162
COc1ncnc2c(N[C@@H]3O[C@H](CO)[C@@H](O)[C@H]3O)ncnc12 [Compound 14, 4-Methoxy-8-(β-D-ribofuranosylamino)pyrimido[5,4-d]pyrimidine] | 17.3 mg/mL (≈ 55.9 mM) | 0.2 VR | lethally toxic at that level for all treated mice | 0.7 VR | less active as a substrate for adenosine deaminase | 280 nM | 40 nM | 173 mg/kg/inj. | 60 nM | not cytotoxic | 1.0 VR | inhibit an early step in de novo purine biosynthesis | 0.25 µM | 41.9% | 2.7% | 63% | 41.8% | greatest inhibitory activity | CAA (carbamyl aspartate), 5.0 μM ([2]; 5.0 μM): 1322 cpm/10^6 cells; PurTP, 5.0 μM ([2]; 5.0 μM, zero = undetectable): 0 cpm/10^6 cells; PyrTP, 5.0 μM ([2]; 5.0 μM, zero = undetectable): 0 cpm/10^6 cells; activity at 5 µM ([2]; 5.0 μM, zero = undetectable, read-out: PurTP, % control, 5.0 μM): 0%; activity at 5 µM ([2]; 5.0 μM, zero = undetectable, read-out: PydTP, % control, 5.0 μM): 0%; maximum non-lethal concentration ([3]; i.p., qd day 1): 6.2 mg/mL; death of treated mice at 10.4 mg/mL ([3]; made up at 10.4 mg/mL): 1/6; metabolised at 18 h, 1000 µM (in vitro; 18 h, same conditions as for ARPP, read-out: deaminated by adenosine deaminase in 18 h): < 10%; T/C, 62 mg/kg (L1210; 62 mg/kg, qd day 1): 182; Postinoculation Lifespan (% T/C), 62 mg/kg/inj. (L1210; 62 mg/kg/inj. i.p., qd, day 1): 182 % T/C; activity at 25 µM ([8]; Homo sapiens, WIL2, cell, 25 μM, pre-incubation 4 h, read-out: de novo purine biosynthesis, % of control, cell, 25 μM): 4.3%
